Test results: PMC11869342, “Design and synthesis of novel HDAC6 inhibitor dimer as HDAC6 degrader for cancer treatment by palladium catalysed dimerisation” (Journal of Enzyme Inhibition and Medicinal Chemistry, 2025)
Entries after “also recorded” stand apart in the source; their conditions may differ. Read-outs that look alike come from different tables or passages of the source.

Tests used:
[1] = biological target: T1, HDAC1 (Homo sapiens, UniProt Q13547); test: HDAC enzyme activity assay (Reaction Biology), HDAC1; assay type: biochemical
T1 construct: purchased Reaction Biology Corporation (Malvern, PA)

[2] = tested on: PC-3 cells; test: Sulforhodamine B (SRB) assay, PC-3; assay type: cell-based; details: Homo sapiens, read-out: GI50 con. ± SEM PC-3
Procedure: (§1) The A549 and PC-3 human lung and prostate cancer cell lines were acquired from the American Type Culture Collection (Rockville, MD). […] The cultures were kept in a 37 °C incubator with 5% CO2. When the adherent cultures reached 80% confluence, they were passaged using 0.05% trypsin-EDTA. PC-3 and A549 cells were seeded into 96-well plates in RPMI medium with 5% (v/v) foetal bovine serum for 24 h. Cells in partial wells were fixed with 10% trichloroacetic acid (TCA) to represent the initial time of compound treatment. The cells were treated with or without the indicated compound for 48 h and then were fixed with 10% TCA. After the washout with ddH2O and air-dried, SRB at 0.4% (w/v) in 1% acetic acid was added for staining. Unbound SRB was washed with 1% acetic acid and SRB-bounded cells were solubilised with 10 mM Tris base. The absorbance was read at a wavelength of 515 nm for the determination of cell growth.

[3] = tested on: A549 cells; test: Sulforhodamine B (SRB) assay, A549; assay type: cell-based; details: Homo sapiens, read-out: GI50 con. ± SEM A549
Procedure: as §1

[4] = biological target: T2, HDAC6 (Homo sapiens, UniProt Q9UBN7); test: HDAC enzyme activity assay (Reaction Biology), HDAC6; assay type: biochemical; set-up: Full-length recombinant hHDAC 6 was expressed in a baculovirus expression system in SF9 cells; purchased Reaction Biology Corporation (Malvern, PA); host or cells: baculovirus / SF9 insect cells; details: for HDAC1/6 Selectivity: ratio of HDAC1 IC50 to HDAC6 IC50; for IC50: full-length recombinant hHDAC 6, RHKKAc substrate 50 μM, 2 h at 30 °C
T2 sequence (Q9UBN7 1-1215): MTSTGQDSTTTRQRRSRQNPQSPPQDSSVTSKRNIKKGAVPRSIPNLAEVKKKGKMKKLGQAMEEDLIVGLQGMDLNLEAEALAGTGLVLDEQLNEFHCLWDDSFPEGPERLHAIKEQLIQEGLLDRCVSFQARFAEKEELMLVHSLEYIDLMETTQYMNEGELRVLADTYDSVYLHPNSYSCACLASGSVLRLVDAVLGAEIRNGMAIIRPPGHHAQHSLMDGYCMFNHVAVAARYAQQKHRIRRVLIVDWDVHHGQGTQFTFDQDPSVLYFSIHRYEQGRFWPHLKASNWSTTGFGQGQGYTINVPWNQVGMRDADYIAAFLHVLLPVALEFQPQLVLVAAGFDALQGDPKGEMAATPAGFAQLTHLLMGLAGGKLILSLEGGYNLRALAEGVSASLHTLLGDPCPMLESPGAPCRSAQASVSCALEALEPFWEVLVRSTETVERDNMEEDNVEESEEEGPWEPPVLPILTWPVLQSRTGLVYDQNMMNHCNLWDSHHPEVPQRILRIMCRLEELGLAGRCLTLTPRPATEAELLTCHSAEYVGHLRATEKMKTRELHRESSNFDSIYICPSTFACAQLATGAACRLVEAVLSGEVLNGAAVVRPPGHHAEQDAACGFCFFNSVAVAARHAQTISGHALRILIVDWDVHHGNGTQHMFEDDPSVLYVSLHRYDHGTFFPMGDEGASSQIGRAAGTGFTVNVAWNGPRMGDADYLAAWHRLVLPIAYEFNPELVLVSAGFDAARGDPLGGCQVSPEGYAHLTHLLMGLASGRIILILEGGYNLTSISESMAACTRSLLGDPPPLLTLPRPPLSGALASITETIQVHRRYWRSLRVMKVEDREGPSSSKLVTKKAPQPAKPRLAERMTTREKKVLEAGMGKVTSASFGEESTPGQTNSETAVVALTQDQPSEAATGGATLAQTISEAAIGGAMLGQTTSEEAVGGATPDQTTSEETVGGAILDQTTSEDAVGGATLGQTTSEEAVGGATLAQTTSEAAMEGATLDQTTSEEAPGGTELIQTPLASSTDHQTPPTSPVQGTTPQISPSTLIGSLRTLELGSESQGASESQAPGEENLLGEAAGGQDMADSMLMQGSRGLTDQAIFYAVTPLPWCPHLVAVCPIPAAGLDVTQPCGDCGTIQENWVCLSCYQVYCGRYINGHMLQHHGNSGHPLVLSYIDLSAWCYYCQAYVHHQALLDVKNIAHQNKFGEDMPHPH
Procedure: HDAC inhibition assays were performed by Reaction Biology Corporation (Malvern, PA). Full-length recombinant hHDAC 6 was expressed in a baculovirus expression system in SF9 cells. […] The reaction was stopped after 2 h at 30 °C . Trichostatin A was used as an internal control.

[5] = tested on: LC-3 II and p62; test: Western blotting of autophagy proteins LC-3 II and p62 in PC-3 cells; assay type: cell-based, human; details: 30 μM, 24 h
Procedure: (§2) Figure 3. Western blotting analysis of (a) HDAC6 protein in PC-3 cells treated with various dimer compounds at 30 μM for 24 h, (b) Ac-α-tubulin protein in PC-3 cells treated with various dimer compounds at 30 μM for 24 h, (c) LC-3 I, LC-3 II, and p62 proteins in PC-3 cells treated with various dimer compounds at 30 μM for 24 h, (d) PARP-1 and Caspase-3 proteins in PC-3 cells treated with various dimer compounds at 30 μM for 24 h, (e) p-BUBR1^S670 and p-BUBR1^T680 proteins in PC-3 cells treated with various dimer compounds at 30 μM for 24 h. Glyceraldehyde 3-phosphate dehydrogenase (GAPDH) was used as the loading control.
(§3) After compound treatment, the cells were harvested and centrifuged. […] The supernatants quantified by Bio-Rad protein assay kit (Bio-Rad Laboratories, Hercules, CA) were mixed with sample buffer (0.3 M Tris pH6.8, 10% SDS, 50% glycerol, 10% β-mercaptoethanol, and 0.02% bromophenol blue) and heated at 95 °C for 10 min. The protein (30 µg) was separated by electrophoresis in 8% or 12% SDS-PAGE, transferred to PVDF membranes, and detected with specific antibodies (1:1000 dilution for the first and 1:7000 for the second antibodies). The immunoreactive proteins were detected with an enhanced chemiluminescence detection kit (Amersham, Buckinghamshire, UK) and the images were captured by ChemiDoc™ MP System (Bio-Rad Laboratories, Hercules, CA).

[6] = tested on: PARP-1 and Caspase-3; test: Western blotting of apoptosis biomarkers PARP-1 and Caspase-3 in PC-3 cells; assay type: cell-based, human; details: 30 μM, 24 h
Procedure: as §2, §3

[7] = biological target: T2, HDAC6; test: Western blotting of HDAC6 protein (degradation) in PC-3 cells; assay type: cell-based; set-up: endogenous in cells; host or cells: PC-3 (ATCC); details: 30 μM, 24 h
Procedure: as §2, §3

T1 sequence (Q13547 whole entry): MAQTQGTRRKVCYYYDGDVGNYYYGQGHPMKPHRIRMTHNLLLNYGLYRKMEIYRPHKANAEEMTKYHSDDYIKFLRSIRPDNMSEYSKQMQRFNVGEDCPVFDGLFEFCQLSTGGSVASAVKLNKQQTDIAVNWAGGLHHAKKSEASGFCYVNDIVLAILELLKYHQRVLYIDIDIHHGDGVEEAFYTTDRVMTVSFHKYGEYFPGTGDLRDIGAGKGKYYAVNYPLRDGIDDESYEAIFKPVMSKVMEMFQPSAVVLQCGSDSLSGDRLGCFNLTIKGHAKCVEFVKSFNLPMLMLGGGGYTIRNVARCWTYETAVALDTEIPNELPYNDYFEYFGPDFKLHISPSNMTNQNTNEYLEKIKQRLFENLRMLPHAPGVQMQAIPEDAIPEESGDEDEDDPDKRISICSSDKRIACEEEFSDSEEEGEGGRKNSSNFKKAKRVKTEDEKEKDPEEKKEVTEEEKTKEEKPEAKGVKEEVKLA

SMILES | IC50 [1] [µM] | GI50 ([2]; PC-3, 48 h) [µM] | GI50 ([3]; A549, 48 h) [µM] | HDAC1/6 Selectivity [4] | GI50 ([2]; PC-3 cells, SRB, 48 h) [µM] | GI50 ([3]; A549 cells, SRB, 48 h) [µM] | IC50 [4] [µM] | autophagy induction (LC-3 II level, p62 expression) [5] | apoptosis induction (PARP-1 cleavage, Caspase-3 activation) [6] | HDAC6 degradation (Western blot) [7]
O=C(NO)c1ccc(Cn2c(=O)n(CCc3ccccc3)c(=O)c3ccccc32)cc1 [Compound 1] | 11.2 | 3.5 | 8.8 | 2790 |  |  |  |  |  | 
O=C(NO)c1ccc(Cn2c(=O)n(CCc3ccccc3)c(=O)c3cc(NCCOCCOCCOCCNc4ccc5c(c4)c(=O)n(CCc4ccccc4)c(=O)n5Cc4ccc(C(=O)NO)cc4)ccc32)cc1 [Compound 4a, 4-{[6-(2-{2-[2-(2-{1-[(4-Hydroxamophenyl)methyl]-2,4-dioxo-3-phenethylquinazolin-6-ylamino}ethoxy)ethoxy]ethoxy}ethylamino)-2,4-dioxo-3-phenethylquinazolin-1-yl]methyl}benzohydroxamic acid] |  |  |  |  | > 30 | > 30 | 0.092 |  |  | 
O=C(NO)c1ccc(Cn2c(=O)n(CCc3ccccc3)c(=O)c3cc(NCCOCCOCCNc4ccc5c(c4)c(=O)n(CCc4ccccc4)c(=O)n5Cc4ccc(C(=O)NO)cc4)ccc32)cc1 [Compound 4b, 4-[(6-{2-[2-(2-{1-[(4-Hydroxamophenyl)methyl]-2,4-dioxo-3-phenethylquinazolin-6-ylamino}ethoxy)ethoxy]ethylamino}-2,4-dioxo-3-phenethylquinazolin-1-yl)methyl]benzohydroxamic acid] | > 10 |  |  | >12 | > 30 | > 30 | 0.816 |  |  | 
O=C(NO)c1ccc(Cn2c(=O)n(CCc3ccccc3)c(=O)c3cc(NCCCCCNc4ccc5c(c4)c(=O)n(CCc4ccccc4)c(=O)n5Cc4ccc(C(=O)NO)cc4)ccc32)cc1 [Compound 4c, 4-{[6-(5-{1-[(4-Hydroxamophenyl)methyl]-2,4-dioxo-3-phenethylquinazolin-6-ylamino}pentylamino)-2,4-dioxo-3-phenethylquinazolin-1-yl]methyl}benzohydroxamic acid] |  |  |  |  | 21.4 ± 0.3 | > 30 | 0.096 |  |  | 
O=C(NO)c1ccc(Cn2c(=O)n(CCc3ccc(NCCOCCOCCNc4ccc(CCn5c(=O)c6ccccc6n(Cc6ccc(C(=O)NO)cc6)c5=O)cc4)cc3)c(=O)c3ccccc32)cc1 [Compound 6b, 4-{[3-(2-{4-[2–(2-{2-[4-(2-{1-[(4-Hydroxamophenyl)methyl]-2,4-dioxoquinazolin-3-yl}ethyl)phenylamino]ethoxy}ethoxy)ethylamino]phenyl}ethyl)-2,4-dioxoquinazolin-1-yl]methyl}benzohydroxamic acid] | 9.57 |  |  | 283 | 5.5 ± 0.7 | 9.1 ± 1.8 | 0.033 | signs of inducing autophagy | did not induce apoptosis | did not degrade HDAC6
O=C(NO)c1ccc(Cn2c(=O)n(CCOCCOCCOCCn3c(=O)c4ccccc4n(Cc4ccc(C(=O)NO)cc4)c3=O)c(=O)c3ccccc32)cc1 [Compound 8a, 4-{[3-(11-{1-[(4-Hydroxamophenyl)methyl]-2,4-dioxoquinazolin-3-yl}-3,6,9-trioxaundecyl)-2,4-dioxoquinazolin-1-yl]methyl}benzohydroxamic acid] | 3.33 |  |  | 273 | 14.7 ± 1.3 | > 30 | 0.012 | strong autophagy induction | induce apoptosis | degradation of HDAC6 was observed; also recorded: induced HDAC6 auto-degradation
O=C(NO)c1ccc(Cn2c(=O)n(CCOCCOCCn3c(=O)c4ccccc4n(Cc4ccc(C(=O)NO)cc4)c3=O)c(=O)c3ccccc32)cc1 [Compound 8b, 4-[(3-{2-[2-(2-{1-[(4-Hydroxamophenyl)methyl]-2,4-dioxoquinazolin-3-yl}ethoxy)ethoxy]ethyl}-2,4-dioxoquinazolin-1-yl)methyl]benzohydroxamic acid] | 3.19 |  |  | 1386 | > 30 | > 30 | 0.002 |  |  | 
O=C(NO)c1ccc(Cn2c(=O)n(CCCCCn3c(=O)c4ccccc4n(Cc4ccc(C(=O)NO)cc4)c3=O)c(=O)c3ccccc32)cc1 [Compound 8c, 4-{[3-(5-{1-[(4-Hydroxamophenyl)methyl]-2,4-dioxoquinazolin-3-yl}pentyl)-2,4-dioxoquinazolin-1-yl]methyl}benzohydroxamic acid] |  |  |  |  | > 30 | > 30 | 0.027 |  |  | 
O=C(NO)c1ccc(CNc2ccccc2C(=O)NCCOCCOCCOCCNC(=O)c2ccccc2NCc2ccc(C(=O)NO)cc2)cc1 [Compound 11a] | 2.6 |  |  | 577 | 5.9 ± 0.7 | 17.3 ± 0.2 | 0.004 |  |  | 
O=C(NO)c1ccc(CNc2ccccc2C(=O)NCCOCCOCCNC(=O)c2ccccc2NCc2ccc(C(=O)NO)cc2)cc1 [Compound 11b] | 1.27 |  |  | 326 | 11.3 ± 0.2 | 17.9 ± 0.4 | 0.003 |  |  | 
O=C(NO)c1ccc(CNc2ccccc2C(=O)NCCCCCNC(=O)c2ccccc2NCc2ccc(C(=O)NO)cc2)cc1 [Compound 11c] | 1.46 |  |  | 95 | 8.2 ± 0.1 | 6.6 ± 0.1 | 0.015 |  |  | 
